Where no end group is shown, it is not given here. [ ]: non-standard residue; d: D form. Nle = CCCC[C@H](N)C(=O)O
What was measured:
gemcitabine-treated mice [1] = assay: Platelet counts in gemcitabine-treated mice (oral efficacy study); assay type: in vivo, C57Bl/6 mice; conditions: subcutaneous, 0.3 mg/kg daily for 21 days after 160 mg/kg gemcitabine; FIG. 3
Protocol: (§1) The female C57Bl/6 mice (7 per group), 6-8 weeks old, were treated with the formulations described above daily starting 1 day after intravenous injection with chemotherapy, 160 mg/kg gemcitabine. On days 1, 3, 7, 15 and 21 after chemotherapy administration, blood was taken under anesthesia from the saphenous vein to assess white blood cell, and platelet numbers. On day 22, the mice were euthanized and bone marrow collected to assess the number of colony forming units.
(§2) The mice were bled from the saphenous vein. The mice were anesthetized by placing the nose of the animals in a 50 ml conical tube containing cotton balls soaked with isoflurane (an inhaled anesthesia). […]
(§3) Twenty μl of blood was mixed with 180 μl of RBC lysing solution (0.83% NH4Cl, 10 mM EDTA, 0.5% NaHCO3). […] This mixture was vortexed and the number of WBC was evaluated by hematocytometer under light microscopy and the number of platelets was evaluated by hematocytometer under phase contrast microscopy.
(§4) In order to assess the oral efficacy, gemcitabine-treated mice were treated daily for 21 days with five treatments: 1) SQ dosed saline, 2) SQ dosed A(1-7) at 0.3 mg/kg, 3) SQ dosed NorLeu3-A(1-7) at 0.3 mg/kg, 4) orally dosed β-CD formulated A(1-7) at 0.3 mg/kg, or 5) orally dosed β-CD formulated NorLeu-A(1-7)) at 0.3 mg/kg. The effects of these treatments on peripheral blood counts were assessed.

gemcitabine-treated mice [2] = assay: White blood cell counts in gemcitabine-treated mice (oral efficacy study); assay type: in vivo, C57Bl/6 mice; conditions: subcutaneous, 0.3 mg/kg daily for 21 days after 160 mg/kg gemcitabine; FIG. 1
Protocol: as §1, §2, §3, §4

Substance | circulating platelet numbers (gemcitabine-treated mice [1]) | number of circulating WBC (gemcitabine-treated mice [2])
Asp-Arg-Nle-Tyr-Ile-His-Pro (DR[Nle]YIHP) [NorLeu3-A(1-7), dosed subcutaneously as comparator] | did not circulating platelet numbers | increased the number of circulating WBC
angiotensin (1-7) (DRVYIHP; Angiotensin 1-7; UniProt P01019 25-31, looked up, fragment) [A(1-7), Investigational Mas agonist peptide] |  | increased the number of circulating WBC
